# Measured values as given in patent US9464044B2, “Compound having ability to inhibit 11Beta-HSD1 enzyme or pharmaceutically acceptable salt thereof, method for producing same, and pharmaceutical composition containing same as active ingredient” (AHN-GOOK PHARMACEUTICAL CO., LTD., priority 2012, dated 2016).
# Biological target: 11β-HSD1 (Homo sapiens (Human), UniProt P28845)
# Assay: 11β-HSD1 inhibiting activity, HTRF assay with human microsomal fractions
# Assay type: biochemical
# Settings: 160 nM cortisone, 200 μM NADPH, 2 h at 37° C.
# Method: The inhibiting activity of 11β-HSD1 derived from microsomal fractions was measured using the HTRF assay (62CO2PEB, Cisbio). […] Europium (Eu^3+) cryptate and XL665-conjugated cortisol were then added to each well and incubated for an additional 2 h at room temperature. The Cortisol concentration was calculated u sing a calibration curve. The IC50 values were calculated from dose response curves using GraphPad Prism software.
# Sequence of 11β-HSD1 (P28845 whole entry): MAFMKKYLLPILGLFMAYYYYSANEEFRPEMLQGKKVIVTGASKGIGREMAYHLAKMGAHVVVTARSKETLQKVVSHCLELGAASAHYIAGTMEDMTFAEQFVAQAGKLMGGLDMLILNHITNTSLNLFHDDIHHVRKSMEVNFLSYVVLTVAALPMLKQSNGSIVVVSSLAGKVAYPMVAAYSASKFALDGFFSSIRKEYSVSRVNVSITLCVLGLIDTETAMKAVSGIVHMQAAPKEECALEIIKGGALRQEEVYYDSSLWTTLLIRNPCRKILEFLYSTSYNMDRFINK
row,Structure (SMILES),IC50 [nM]
1,"Cc1cc(S(=O)(=O)NC2(C(=O)NC3C4CC5CC3CC(C(N)=O)(C5)C4)CC2)c(F)cc1Cl (centres unmarked) [Example 46, E-4-[1-(2-fluoro-4-chloro-5-methyl-benzenesulfonylamino)cyclopropanecarboxamido]-adamantan-1-carboxylic acid amide]",34.7
2,"O=C(NC1CC2CCC1C2)C1(NS(=O)(=O)c2cccc(Cl)c2)CC1 (centres unmarked) [Example 55, N-(bicyclo[2.2.1]heptan-2-yl)-1-(3-chloro-benzenesulfonylamino)cyclopropanecarboxamide]",8.3
3,"CC(C)(CNS(=O)(=O)c1ccccc1)C(=O)NC1C2CC3CC1CC(C(N)=O)(C3)C2 (centres unmarked) [Example 69, E-4-[3-(benzenesulfonylamino)-2,2-dimethylpropanamido]adamantan-1-carboxylic acid amide]",28.6
4,"NC(=O)C12CC3CC(C1)C(NC(=O)c1cccc(NS(=O)(=O)c4cccc(F)c4)c1)C(C3)C2 (centres unmarked) [Example 120, E-4-[3-(3-fluoro-benzenesulfonylamino)-benzamido]-adamantan-1-carboxylic acid amide]",27.2
5,"NC(=O)C12CC3CC(C1)C(NC(=O)c1cccc(NS(=O)(=O)c4ccc(F)cc4F)c1)C(C3)C2 (centres unmarked) [Example 121, E-4-[3-(2,4-difluoro-benzenesulfonylamino)-benzamido]-adamantan-1-carboxylic acid amide]",7.8
6,"Cc1cccc(F)c1S(=O)(=O)N(C)CC1(C(=O)NC2C3CC4CC2CC(C(N)=O)(C4)C3)CC1 (centres unmarked) [Example 13, E-4-[1-((2-fluoro-N,6-dimethyl-benzenesulfonylamino)methyl)cyclopropanecarboxamido]-adamantan-1-carboxylic acid amide]",2.8
7,"Cc1c(Cl)cccc1S(=O)(=O)NCC1(C(=O)NC2C3CC4CC(C3)CC2C4)CC1 (centres unmarked) [Example 1, N-(adamantan-2-yl)-1-[(3-chloro-2-methylbenzenesulfonylamino)methyl]cyclopropanecarboxamide]",14.2
8,"NC(=O)C12CC3CC(C1)C(NC(=O)c1cccc(NS(=O)(=O)c4ccc(Br)cc4Cl)c1)C(C3)C2 (centres unmarked) [Example 116, E-4-[3-(2-chloro-4-bromo-benzenesulfonylamino)-benzamido]-adamantan-1-carboxylic acid amide]",14.5
9,"NC(=O)C12CC3CC(C1)C(NC(=O)c1cccc(NS(=O)(=O)c4ccc(F)cc4)c1)C(C3)C2 (centres unmarked) [Example 94, E-4-[3-(4-fluoro-benzenesulfonylamino)-benzamido]-adamantan-1-carboxylic acid amide]",75.7
10,"CN(c1cccc(C(=O)NC2C3CC4CC2CC(C(N)=O)(C4)C3)c1)S(=O)(=O)c1ccccc1C(F)(F)F (centres unmarked) [Example 99, E-4-(3-[(2-trifluoromethyl-benzenesulfonyl)-methylamino]-benzamido)-adamantan-1-carboxylic acid amide]",1.9
11,"NC(=O)C12CC3CC(C1)C(NC(=O)C1(NS(=O)(=O)c4cc(Cl)c(Cl)cc4F)CC1)C(C3)C2 (centres unmarked) [Example 45, E-4-[1-(2-fluoro-4,5-dichloro-benzenesulfonylamino)cyclopropanecarboxamido]-adamantan-1-carboxylic acid amide]",32.5
12,"Cc1cccc(F)c1S(=O)(=O)NC1(C(=O)NC2C3CC4CC2CC(C(N)=O)(C4)C3)CC1 (centres unmarked) [Example 40, E-4-[1-(2-fluoro-6-methyl-benzenesulfonylamino)cyclopropanecarboxamido]-adamantan-1-carboxylic acid amide]",1.7
13,"Cc1c(Cl)cccc1S(=O)(=O)NC1(C(=O)NC2C3CC4CC2CC(C(N)=O)(C4)C3)CC1 (centres unmarked) [Example 41, E-4-[1-(3-chloro-2-methyl-benzenesulfonylamino)cyclopropanecarboxamido]-adamantan-1-carboxylic acid amide]",10
14,NC(=O)C12CC3CC(C1)C(NC(=O)C1(NC(=O)c4cccc(F)c4F)CC1)C(C3)C2 (centres unmarked) [Example 59],11.2
